pIC50: −log10 of the molar value.
Columns and labels:
[1] = Caco-2 cell permeability assay; type: in vitro ADME; conditions: human, Caco-2, pH 7.4, basal to apical Papp, pH 7.4, 2.5 h
Procedure: (§1) Certain Example compounds and Comparative Example 1 were tested for their apical to basal (AB) and basal to apical (BA) permeability in Caco-2 cells.
(§2) Cell Culture: Caco-2 cells were grown for 10 days in 96-well plates in HBSS buffer containing 10 mM HEPES. Both the apical and basal pH was buffered at pH 7.4. The apical/basal volumes were 75 μl and 250 μl respectively. The incubation time was 2.5 h at 37° C. (without shaking) under 5% CO2 & 95% relative humidity.
(§3) Cell Seeding: Cells were seeded at a density of 18750 cells/well (membrane area=0.0804 cm^2) in a 96 well plate.
(§4) AB Assay: 75 μl of cell suspension was added at a density 2.5×10^5 cells/ml to the apical wells. 40 ml media was added to the feeder tray. The plates were placed in the incubator (37° C., 5% CO2 and controlled humidity). The Caco-2 cells were grown for 10 days with a media change on every alternate day.
(§5) BA Assay: 25 μl of cell suspension was added at a density of 7.5×10^5 cells/ml to the bottom side (keeping the plate upside down) of apical wells. The plate (upside down position) was placed in the incubator (37° C., 5% CO2 and 95% Relative humidity) for 2 h. The plate was turned right side up. 75 μl media was added to the apical wells and 40 ml media to the feeder tray.
(§6) Permeablity Assay: The apical and basal wells were washed with buffer (pH 7.4) and 250 μl buffer was added to the wells of the basal plate. 75 μl of compound solution (2 μM, dissolved in water with 1% DMSO) was transferred to the apical wells (n=2). The apical plate was placed onto the basal plate. The lid was placed on to prevent evaporation. The assembly was incubated at 37° C. for 2.5 h (without shaking) under 5% CO2 and 95% relative humidity. After incubation the apical plate was separated from the basal plate. Aliquots were taken out from the acceptor and donor wells, diluted and quantified using LC-MS/MS along with initial donor samples.
(§7) Membrane Integrity Test: Solution in the apical wells was discarded by inverting the plate and soaking onto tissue paper. 250 μl buffer (pH 7.4) was added to each well of basal plate and 75 μl of Lucifer Yellow (LY; 0.1 mg/ml) in buffer (pH 7.4) to the wells of apical plate. The apical plate was placed onto the basal plate and the lid used to prevent evaporation. The assembly was incubated at 37° C. for 1 h (without shaking) under 5% CO2 and 95% relative humidity. The apical plate was separated from the basal plate. Fluorescence (Ex: 432 nm, Em: 530 nm) of aliquots (100 ul) was measured from basal wells. Fluorescence of 100 μl buffer (pH 7.4) and 100 μl LY(0.1 mg/ml) was also measured. Wells having more than 1% fluorescence intensity with respect to 0.1 mg/ml LY were considered non-integrated membrane. Such wells, if any, were not considered for permeability calculation.
(§8) Calculation: Drug was detected and quantified by LC-MS/MS. Data generated took the form of an apparent permeability (Papp) value. Papp=[Va/(AreaxTime)]×(LC-MS Area of Acceptor sample×Sample dilution factor/LC-MS Area of Initial Donor). Va=Volume of Acceptor Well (in ml)=0.25, Vd=Volume of Donor Well (in ml)=0.075, Area=Surface area of the membrane (cm2)=0.0804, Time=Time of incubation (sec)=9000 Results: The results of the assay are shown in Table 3 below.

[2] = tested on: Caco-2 cells; experiment: Caco-2 cell permeability assay; type: in vitro ADME; conditions: apical to basal Papp, 2 μM, pH 7.4, 2.5 h
Procedure: as §1, §2, §3, §4, §5, §6, §7, §8

[3] = tested on: HT1080 (human fibrosarcoma); experiment: Cell cytotoxicity CellTiter-Glo, HT1080; type: cell-based; conditions: HT-1080
Procedure: (§9) Cells were seeded in 96-well microplates and treated with compounds or cisplatin (as a positive control) at 9 increasing concentrations in technical triplicate. […] On day 1, 90 μL of various cell suspensions with the number of cells ranging from 5000-8000 cells/well were seeded into wells of a 96-well plate (Corning). The number of cells to be seeded was previously determined. • 2. All 96-wells plates with cells were placed in an incubator overnight at 37° C. with 5% CO2. • 3. On day 2, cells were observed under a microscope ensuring the cells treated with vehicle control were in good condition. • 4. A dilution series of the test compounds and cisplatin were prepared at 10× the final concentrations required. 10 μL/well of 10× compound solution was added to the corresponding plates. The final volume was 100 μL/well for all the plates. Final DMSO concentration was 0.1%. • 5. On day 5 (after 72 hours of incubation), 50 μL of CTG reagent was added to each well. • 6. Contents were mixed for 5 minutes on an orbital shaker to facilitate cell lysis. • 7. The plate was allowed to incubate at room temperature for 10 minutes to stabilize luminescent signals. […]

[4] = tested on: rat hepatocytes; experiment: Hepatocyte metabolic stability, rat; type: in vitro ADME
Procedure: (§10) Biological Example 6: Rat hepatocyte half life Certain Example compounds and Comparator Compound 1 were tested for metabolic stability in a metabolic assay using mouse- and rat-derived hepatocytes. Compounds having good metabolic stability in the assay are expected to be especially useful as agents for preventing and/or treating cancer, by having a long half-life in human patients.
(§11) Frozen pooled rat and mouse hepatocytes obtained from LifeTechnologies were thawed and purified according to the manufacturer's instructions. The test compound (4 mM) in DMSO was diluted with acetonitrile to provide a 100 μM sub-stock then further diluted with pH 7.4 Krebs-Henseleit buffer (supplemented with CaCl2, NaHCO3, HEPES, fructose and glycine) to provide a 2 μM working solution. 25 μL of working solution was incubated at 37° C., treated with 25 μL of rat or mouse hepatocyte suspension (containing 1×10^6 cells/mL) and incubated at 37° C. with 5% CO2 level at 95% relative humidity. Wells were incubated for an appropriate time (0, 15, 30, 45, 60 and 75 min) then quenched with 250 μL of acetonitrile containing reference standards diltiazem, 7-ethoxycoumarin and propranolol). The plates were shaken, sonicated for 5 min then cooled to 4° C. until all sampling was complete. All plates were centrifuged at 4000 rpm for 20 min to pellet the debris. 110 μL supernatant was diluted 110 μL water and quantitated using LC-MS/MS.
(§12) A linear regression curve was fitted to a plot of natural logarithm (In) of AUC against time. The T-half (min)=0.693/slope

[5] = tested on: NCI-H1703 (human lung squamous cell carcinoma); experiment: Cell cytotoxicity CellTiter-Glo, NCI-H1703; type: cell-based
Procedure: as §9

[6] = tested on: MX-1 (human breast carcinoma); experiment: Cell cytotoxicity CellTiter-Glo, MX-1; type: cell-based; conditions: MX1
Procedure: as §9

[7] = tested on: SU-DHL-10 cell line (human B cell lymphoma); experiment: Cell cytotoxicity in SU-DHL-10 cell line (CellTiter-Glo); type: cell-based; conditions: 72 h treatment, CTG
Outline: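 Cells seeded at 5000-8000/well, dosed next day with 9 concentrations in triplicate (DMSO 0.1% final) and incubated 72 h at 37° C, 5% CO2. Viability by CellTiter-Glo luminescence normalised to vehicle (100%) and medium blank; IC50 from sigmoidal nonlinear regression.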

[8] = tested on: mouse hepatocytes; experiment: Hepatocyte metabolic stability, mouse; type: in vitro ADME
Procedure: as §10, §11, §12

[9] = tested on: RKO (human colon carcinoma); experiment: Cell cytotoxicity CellTiter-Glo, RKO; type: cell-based
Procedure: as §9

[10] = tested on: CA46 (human B cell lymphoma); experiment: Cell cytotoxicity CellTiter-Glo, CA46; type: cell-based
Procedure: as §9

[11] = tested on: DU4475 (human breast carcinoma); experiment: Cell cytotoxicity CellTiter-Glo, DU4475; type: cell-based; conditions: DU-4475
Procedure: as §9

[12] = tested on: DOHH-2 tumor cells; experiment: Subcutaneous xenograft DOHH-2 lymphoma model; type: in vivo, CB17/SCID mice; conditions: intraperitoneal dosing (Example 5: 7 or 20 mg/kg; Example 12: 0.7 or 2 mg/kg), QD cycles
Procedure: The in vivo efficacy of certain Example compounds was assessed in a subcutaneous xenograft DOHH-2 Lymphoma Model using 10 female 6-8 week old CB17/SCID Mice. Each mouse was inoculated subcutaneously at the right front region with DOHH-2 tumor cells (5×10^6) in 0.1 ml of PBS mixed with matrigel (1:1 PBS:matrigel) for tumor development. The test compound administration started once the mean tumor size reached approximately 100-150 mm^3.
Compounds were administered either IP (vehicle 10 mM sodium phosphate+0.2% Tween-80 (pH7.4) or orally (vehicle 15 Na2HPO4 buffer (10 mM) (pH 4.5)+0.2% tween 80). Tumor volumes were measured in two dimensions using a caliper, and the volume expressed in mm^3 using the formula: V=(L×W×W)/2, where V is tumor volume, L is tumor length (the longest tumor dimension) and W is tumor width (the longest tumor dimension perpendicular to L).
Mice were dosed with Example 21 orally (12.5 or 25 mg/kg) once a day for 9 consecutive days (FIG. 3). Example 5 was dosed intraperitoneally (7 or 20 mg/kg) in a cycle consisting of administration QD for three days followed by a three day no-dosing period followed by QD dosing for a further three days (FIG. 4). Example 12 was dosed intraperitoneally (0.7 or 2 mg/kg) in a cycle consisting of administration QD for three days followed by a three day no-dosing period followed by QD dosing for a further three days (FIG. 5). In a separate study Example 12 was dosed at […] in a cycle consisting of administration QD for two days followed by either four or six day no-dosing period, and this cycle was repeated three times (FIG. 6).

Papp B→A at 2.5 h, 2 μM [1] | Caco-2 A-B [2] | rHeps t^1/2 [4] | mHeps t^1/2 [8] | SMILES | pIC50 [3] | pIC50 [5] | pIC50 [6] | pIC50 [7] | pIC50 [9] | pIC50 [10] | pIC50 [11] | pIC50 ([7]; Homo sapiens, SU-DHL10, 72 h) | tumour volume compared to vehicle [12]
5.14 ×10⁻⁶ cm/s | 0.215 ×10⁻⁶ cm/s | 18 min | 26.73 min | CNCc1cnc2ccc(-c3ccc(F)c(F)c3OCCc3c(C(O)C(C)(C)C)nn(C)c3C)cn12 (single isomer, unassigned) [Example 14, 1-(4-(2-(2,3-difluoro-6-(3-((methylamino)methyl)imidazo[1,2-a]pyridin-6-yl)phenoxy)ethyl)-1,5-dimethyl-1H-pyrazol-3-yl)-2,2-dimethylpropan-1-ol] | 9.00 | 8.40 | 8.85 | 9.40 | 8.70 | 8.70 | 7.70 |  | 
14.1 ×10⁻⁶ cm/s | 0.1 ×10⁻⁶ cm/s | 68 min |  | CNCc1cnc2ccc(-c3ccc(F)cc3OCCc3c(C(C)O)nn(C)c3C)cn12 (stereo not drawn) [Example 1, 1-{4-[2-(5-fluoro-2-{3-[(methylamino)methyl]imidazo[1,2-a]pyridin-6-yl}phenoxy)ethyl]-1,5-dimethyl-1H-pyrazol-3-yl}ethan-1-ol] |  |  |  |  |  |  |  | 7.82 | 
16 ×10⁻⁶ cm/s | 0.195 ×10⁻⁶ cm/s |  | 51.17 min | CNCc1cnc2ccc(-c3ccc(F)c(F)c3OCCc3c(C(C)O)nn(C)c3C)cn12 (stereo not drawn) [Example 5, 1-{4-[2-(2,3-difluoro-6-{3-[(methylamino)methyl]imidazo[1,2-a]pyridin-6-yl}phenoxy)ethyl]-1,5-dimethyl-1H-pyrazol-3-yl}ethan-1-ol] |  |  |  |  |  |  |  | 8.23 | significant reduction in tumour volume or reduced growth in tumour volume
22 ×10⁻⁶ cm/s | 3.04 ×10⁻⁶ cm/s | 15 min |  | Cc1c(CCOc2c(-c3ccc4ncc(CN(C)C)n4c3)ccc(F)c2F)c(C(C)O)nn1C (stereo not drawn) [Example 6, 1-(4-(2-(6-(3-((dimethylamino)methyl)imidazo[1,2-a]pyridin-6-yl)-2,3-difluorophenoxy)ethyl)-1,5-dimethyl-1H-pyrazol-3-yl)ethan-1-ol] |  |  |  |  |  |  |  | 8.30 | 

From US12599676B2, “Cytotoxic imidazo[1,2-A]pyridine compounds and their use in therapy” (MyricX Pharma Limited, priority 2022, dated 2026)
